According to ChEMBL document CHEMBL4480381, “Origin and bioactivities of thiosulfinated FK228” (Medchemcomm, 2019):

Biological target: Histone deacetylase 4 (Homo sapiens, UniProt P56524)
Experiment: Inhibition of human recombinant C-terminal GST-tagged HDAC4 (101 to 1084 residues) expressed in baculovirus infected Sf9 insect cells after 1 hr by HDAC-Glo1/2 luminescent assay

Sequence of Histone deacetylase 4 (P56524 whole entry, the tested form may be a part): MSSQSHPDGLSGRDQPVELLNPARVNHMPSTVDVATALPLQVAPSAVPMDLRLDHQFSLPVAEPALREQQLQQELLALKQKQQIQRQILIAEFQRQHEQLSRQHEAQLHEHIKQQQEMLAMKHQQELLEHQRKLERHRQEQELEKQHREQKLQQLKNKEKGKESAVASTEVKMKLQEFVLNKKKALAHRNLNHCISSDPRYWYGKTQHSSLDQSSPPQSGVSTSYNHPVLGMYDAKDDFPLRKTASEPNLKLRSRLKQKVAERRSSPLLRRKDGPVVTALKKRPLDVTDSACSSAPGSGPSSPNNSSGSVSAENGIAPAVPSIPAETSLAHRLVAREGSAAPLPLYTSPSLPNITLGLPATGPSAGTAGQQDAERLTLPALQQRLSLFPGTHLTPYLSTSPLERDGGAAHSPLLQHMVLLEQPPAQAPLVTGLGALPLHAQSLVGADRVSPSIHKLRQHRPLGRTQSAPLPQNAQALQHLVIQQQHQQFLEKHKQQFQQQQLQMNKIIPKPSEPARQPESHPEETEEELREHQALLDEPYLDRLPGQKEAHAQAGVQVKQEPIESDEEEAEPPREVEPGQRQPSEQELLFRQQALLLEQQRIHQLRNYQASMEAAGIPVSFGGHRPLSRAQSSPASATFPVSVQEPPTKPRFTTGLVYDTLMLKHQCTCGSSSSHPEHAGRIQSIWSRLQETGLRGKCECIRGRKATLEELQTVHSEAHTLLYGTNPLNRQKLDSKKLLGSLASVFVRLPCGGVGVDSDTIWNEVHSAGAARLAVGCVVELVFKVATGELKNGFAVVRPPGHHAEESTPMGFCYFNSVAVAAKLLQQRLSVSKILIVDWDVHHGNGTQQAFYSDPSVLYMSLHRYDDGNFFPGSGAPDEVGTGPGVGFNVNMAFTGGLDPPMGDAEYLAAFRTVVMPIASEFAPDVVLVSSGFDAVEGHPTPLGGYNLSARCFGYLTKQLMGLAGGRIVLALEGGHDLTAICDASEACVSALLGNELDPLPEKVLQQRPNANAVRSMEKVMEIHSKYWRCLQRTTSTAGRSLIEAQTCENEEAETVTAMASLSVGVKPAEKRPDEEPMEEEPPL

## C/C=C1\NC(=O)[C@H]2CSSCC/C=C/[C@H](CC(=O)N[C@H](C(C)C)C(=O)N2)OC(=O)[C@H](C(C)C)NC1=O [ROMIDEPSIN]
  IC50: 4.46 µM
